From patent publication US20180162862A1 (President and Fellows of Harvard College, priority 2015, published 2018) come the findings set out here.

In brackets after ≈: the same amount, converted by molar mass.

As usually defined, the MIC is the lowest concentration found to suppress growth.

Holding throughout (format): cell-based
The test system of one assay is S. aureus ATCC 29213. Kind of assay: MIC test according to CLSI M7-A9, S. aureus ATCC 29213. The note with it: Staphylococcus aureus, ATCC29213; CLSI M7-A9, CAMHB, 24 h (Table 3); read-out: S. aureus ATCC 29213 MIC. The protocol:
(§1) MIC Test (S. aureus ATCC 29213, S. aureus ATCC 43300 and S. aureus Newman)
(§2) Susceptibility testing of S. aureus ATCC 29213, ATCC 43300 and Newman was performed according to Clinical Laboratory Standard Institute (CLSI) guidelines M7-A9. Test articles were stored at room temperature prior to use, then dissolved in filtered sterile DMSO. Stock DMSO solutions were diluted further in cation-adjusted Mueller Hinton broth (CAMHB) to provide appropriate test concentrations. Cultures of S. aureus (ATCC 29213, ATCC 43300 or Newman) were added in accordance with CLSI guidelines and plates incubated at 37° C. in air for 24 h. Endpoints were determined visually (and by spectrophotometer at 600 nm) and the minimum inhibitory concentration (MIC) defined as the lowest concentration of test articles resulting in complete inhibition of visible bacterial growth. Results are detailed in Table 2 (S. aureus ATCC 29213 and ATCC 43300) and Table 3 (S. aureus ATCC 29213, ATCC 43300 and Newman).

The test system of the next assay is S. aureus ATCC 43300. Briefly: MIC test according to CLSI M7-A9, S. aureus ATCC 43300. The following applies: Staphylococcus aureus, ATCC43300; CLSI M7-A9, CAMHB, 24 h (Table 3); read-out: S. aureus ATCC 43300 MIC. The protocol: as §1, §2
The test system of another assay is S. aureus Newman. Briefly: MIC test according to CLSI M7-A9, S. aureus Newman. The following applies: Staphylococcus aureus, CLSI M7-A9, CAMHB, 24 h (Table 3), read-out: S. aureus ATCC Newman MIC. As to the method: as §1, §2

In the case of `CCCCCCCCCCCCCCCCNc1nc(-c2ccc(C(C)(C)C)cc2)nc2cc(=O)[nH]n12` [Example 73, 2-(4-tert-butylphenyl)-4-(hexadecylamino)-6H,7H-pyrazolo[1,5-a][1,3,5]triazin-7-one], the MIC with S. aureus ATCC 29213, in the assay with S. aureus ATCC 43300 and in the assay with S. aureus Newman was more than 32 µg/mL in each case.
`CC(C)(C)c1ccc(-c2nc(NCCCNCc3ccccc3)n3[nH]c(=O)cc3n2)cc1` [Example 74, 4-{[3-(benzylamino)propyl]amino}-2-(4-tert-butylphenyl)-6H,7H-pyrazolo[1,5-a][1,3,5]triazin-7-one]: the MIC in the assay with S. aureus ATCC 29213, with S. aureus ATCC 43300 and in the assay on S. aureus Newman was 16 µg/mL (≈ 37.2 µM) each time.
Consider `CN(C)CCCNc1nc(-c2ccc(C(C)(C)C)cc2)nc2cc(=O)[nH]n12` [Example 75, 2-(4-tert-butylphenyl)-4-{[3-(dimethylamino)propyl]amino}-6H,7H-pyrazolo[1,5-a][1,3,5]triazin-7-one], for which the MIC in the assay with S. aureus ATCC 29213, in the assay with S. aureus ATCC 43300 and in the assay on S. aureus Newman was 32 µg/mL (≈ 86.8 µM) each time.
`CC(C)(O)CCNc1nc(-c2ccc(C(C)(C)C)cc2)nc2cc(=O)[nH]n12` [Example 80, 2-(4-tert-butylphenyl)-4-[(3-hydroxy-3-methylbutyl)amino]-6H,7H-pyrazolo[1,5-a][1,3,5]triazin-7-one]: the MIC was found to be 32 µg/mL (≈ 86.6 µM) in the assay on S. aureus ATCC 29213, 64 µg/mL (≈ 173 µM) in the assay with S. aureus ATCC 43300 and 32 µg/mL (≈ 86.6 µM) in the assay with S. aureus Newman.
Take `CC(C)(C)c1ccc(-c2nc(NCCN3CCOCC3)n3[nH]c(=O)cc3n2)cc1` [Example 81, 2-(4-tert-butylphenyl)-4-{[2-(morpholin-4-yl)ethyl]amino}-6H,7H-pyrazolo[1,5-a][1,3,5]triazin-7-one]: the MIC with S. aureus ATCC 29213, with S. aureus ATCC 43300 and in the assay on S. aureus Newman was 128 µg/mL (≈ 323 µM) each time.
As for `CC(C)(C)c1ccc(-c2nc(NCCN3CCCCC3)n3[nH]c(=O)cc3n2)cc1` [Example 82, 2-(4-tert-butylphenyl)-4-{[2-(piperidin-1-yl)ethyl]amino}-6H,7H-pyrazolo[1,5-a][1,3,5]triazin-7-one], the MIC in the assay on S. aureus ATCC 29213 was determined as 64 µg/mL (≈ 162 µM); in the assay on S. aureus ATCC 43300, 64 µg/mL (≈ 162 µM); in the assay with S. aureus Newman, 32 µg/mL (≈ 81.1 µM).
With `CN(CCNc1nc(-c2ccc(C(C)(C)C)cc2)nc2cc(=O)[nH]n12)C1CCCCC1` [Example 83, 2-(4-tert-butylphenyl)-4-({2-[cyclohexyl(methyl)amino]ethyl}amino)-6H,7H-pyrazolo[1,5-a][1,3,5]triazin-7-one], the MIC in the assay on S. aureus ATCC 29213, with S. aureus ATCC 43300 and in the assay with S. aureus Newman was 32 µg/mL (≈ 75.7 µM) in each case.
Turning to `Cc1cc(OCCCN(CCO)c2nc(-c3ccc(C(C)(C)C)cc3)nc3cc(=O)[nH]n23)ccc1Cl` [Example 85], the MIC with S. aureus ATCC 29213 was 32 µg/mL (≈ 62.7 µM); in the assay with S. aureus ATCC 43300, 32 µg/mL (≈ 62.7 µM); in the assay with S. aureus Newman it was 4 µg/mL (≈ 7.84 µM).
For `CC(C)(C)c1ccc(-c2nc(NCC(F)CNC3CCCCC3)n3[nH]c(=O)cc3n2)cc1` (stereo not shown) [Example 87, 2-(4-tert-butylphenyl)-4-{[3-(cyclohexylamino)-2-fluoropropyl]amino}-6H,7H-pyrazolo[1,5-a][1,3,5]triazin-7-one], the MIC in the assay on S. aureus ATCC 29213, in the assay with S. aureus ATCC 43300 and with S. aureus Newman was 32 µg/mL (≈ 72.6 µM) in each case.
Consider `Cc1oc(C(C)(C)C)cc1-c1nc2cc(=O)[nH]n2c(=S)[nH]1` [Example 92, 2-(5-tert-butyl-2-methylfuran-3-yl)-4-sulfanylidene-3H,4H,6H,7H-pyrazolo[1,5-a][1,3,5]triazin-7-one], for which the MIC in the assay with S. aureus ATCC 29213 turned out to be 32 µg/mL (≈ 105 µM); in the assay on S. aureus ATCC 43300, 16 µg/mL (≈ 52.6 µM); with S. aureus Newman it was 8 µg/mL (≈ 26.3 µM).
Turning to `CCCCNc1nc(-c2ccc(C(C)(C)C)cc2)nc2c(Cc3c[nH]cn3)c(=O)[nH]n12` [Example 110, 4-(butylamino)-2-(4-tert-butylphenyl)-8-(1H-imidazol-4-ylmethyl)-6H,7H-pyrazolo[1,5-a][1,3,5]triazin-7-one], the minimal inhibitory concentration (MIC) stood at 4 µg/mL (≈ 9.53 µM) in the assay on S. aureus ATCC 29213 and 2 µg/mL (≈ 4.77 µM) in the assay on S. aureus Newman.
Taken in the same sequence, the figures for `CC(C)(C)c1ccc(-c2nc(NCCCc3ccccc3)n3[nH]c(=O)c(Cc4c[nH]cn4)c3n2)cc1` [Example 111, 2-(4-tert-butylphenyl)-8-(1H-imidazol-4-ylmethyl)-4-[(3-phenylpropyl)amino]-6H,7H-pyrazolo[1,5-a][1,3,5]triazin-7-one] were 4 µg/mL (≈ 8.31 µM) and 2 µg/mL (≈ 4.15 µM).
For `Cc1ccc(Cc2c(=O)[nH]n3c(NCCCO)nc(-c4ccc(C(C)(C)C)cc4)nc23)cn1` [Example 113, 2-(4-tert-butylphenyl)-4-[(3-hydroxypropyl)amino]-8-[(6-methylpyridin-3-yl)methyl]-6H,7H-pyrazolo[1,5-a][1,3,5]triazin-7-one] the same measures were 32 µg/mL (≈ 71.7 µM) and 32 µg/mL (≈ 71.7 µM).
Taken in the same sequence, the figures for `Cc1ccc(Cc2c(=O)[nH]n3c(NCCCN(C)C)nc(-c4ccc(C(C)(C)C)cc4)nc23)cn1` [Example 114, 2-(4-tert-butylphenyl)-4-{[3-(dimethylamino)propyl]amino}-8-[(6-methylpyridin-3-yl)methyl]-6H,7H-pyrazolo[1,5-a][1,3,5]triazin-7-one] were 64 µg/mL (≈ 135 µM) and 64 µg/mL (≈ 135 µM).
As to `Cc1ccc(Cc2c(=O)[nH]n3c(NCCCN4CCc5ccccc5C4)nc(-c4ccc(C(C)(C)C)cc4)nc23)cn1` [Example 115, 2-(4-tert-butylphenyl)-8-[(6-methylpyridin-3-yl)methyl]-4-[3-(1,2,3,4-tetrahydroisoquinolin-2-yl)propyl]amino-6H,7H-pyrazolo[1,5-a][1,3,5]triazin-7-one], the MIC with S. aureus ATCC 29213 was 32 µg/mL (≈ 57 µM); in the assay on S. aureus Newman it was 8 µg/mL (≈ 14.2 µM).
On to `Cc1ccc(Cc2c(=O)[nH]n3c(NCCCNC4Cc5ccccc5C4)nc(-c4ccc(C(C)(C)C)cc4)nc23)cn1` [Example 116, 2-(4-tert-butylphenyl)-4-({3-[(2,3-dihydro-1H-inden-2-yl)amino]propyl}amino)-8-[(6-methylpyridin-3-yl)methyl]-6H,7H-pyrazolo[1,5-a][1,3,5]triazin-7-one], for which the minimal inhibitory concentration (MIC) in the assay on S. aureus ATCC 29213 and in the assay on S. aureus Newman was 4 µg/mL (≈ 7.12 µM) throughout.
With `Cc1ccc(Cc2c(=O)[nH]n3c(N4CCN(C)CC4)nc(-c4ccc(C(C)(C)C)cc4)nc23)cn1` [Example 117, 2-(4-tert-butylphenyl)-4-(4-methylpiperazin-1-yl)-8-[(6-methylpyridin-3-yl)methyl]-6H,7H-pyrazolo[1,5-a][1,3,5]triazin-7-one], the MIC with S. aureus ATCC 29213 and in the assay on S. aureus Newman was 128 µg/mL (≈ 271 µM) each time.
On to `CC(C)(C)c1ccc(-c2nc3c(CC45CC6CC(CC(C6)C4)C5)c(=O)[nH]n3c(=S)[nH]2)cc1` [Example 118, 8-(adamantan-1-ylmethyl)-2-(4-tert-butylphenyl)-4-sulfanylidene-3H,4H,6H,7H-pyrazolo[1,5-a][1,3,5]triazin-7-one], for which the values for the MIC with S. aureus ATCC 29213 and with S. aureus Newman were 8 µg/mL (≈ 17.8 µM) and 0.5 µg/mL (≈ 1.11 µM), respectively.
For the molecule `CC(C)(C)c1ccc(-c2nc(NCCCO)n3[nH]c(=O)c(CC45CC6CC(CC(C6)C4)C5)c3n2)cc1` [Example 119, 8-(adamantan-1-ylmethyl)-2-(4-tert-butylphenyl)-4-[(3-hydroxypropyl)amino]-6H,7H-pyrazolo[1,5-a][1,3,5]triazin-7-one], the MIC in the assay on S. aureus ATCC 29213 and in the assay on S. aureus Newman was 16 µg/mL (≈ 32.7 µM) each time.
As to `CN(C)CCCNc1nc(-c2ccc(C(C)(C)C)cc2)nc2c(CC34CC5CC(CC(C5)C3)C4)c(=O)[nH]n12` [Example 120, 8-(adamantan-1-ylmethyl)-2-(4-tert-butylphenyl)-4-{[3-(dimethylamino)propyl]amino}-6H,7H-pyrazolo[1,5-a][1,3,5]triazin-7-one], the MIC with S. aureus ATCC 29213 and with S. aureus Newman was 1 µg/mL (≈ 1.94 µM) each time.
In the case of `O=c1[nH]n2c(NCCCO)nc(C34CC5CC(CC(C5)C3)C4)nc2c1Cc1ccccc1` [Example 122, 2-(adamantan-1-yl)-8-benzyl-4-[(3-hydroxypropyl)amino]-6H,7H-pyrazolo[1,5-a][1,3,5]triazin-7-one], the minimal inhibitory concentration (MIC) with S. aureus ATCC 29213 and in the assay with S. aureus Newman was 8 µg/mL (≈ 18.5 µM) each time.
As to `CN(C)CCCNc1nc(C23CC4CC(CC(C4)C2)C3)nc2c(Cc3ccccc3)c(=O)[nH]n12` [Example 123, 2-(adamantan-1-yl)-8-benzyl-4-{[3-(dimethylamino)propyl]amino}-6H,7H-pyrazolo[1,5-a][1,3,5]triazin-7-one], the MIC in the assay with S. aureus ATCC 29213 and with S. aureus Newman was 4 µg/mL (≈ 8.68 µM) throughout.
Turning to `O=c1[nH]n2c(NCCCN3CCc4ccccc4C3)nc(C34CC5CC(CC(C5)C3)C4)nc2c1Cc1ccccc1` [Example 124, 2-(adamantan-1-yl)-8-benzyl-4-{[3-(1,2,3,4-tetrahydroisoquinolin-2-yl)propyl]amino}-6H,7H-pyrazolo[1,5-a][1,3,5]triazin-7-one], the MIC in the assay with S. aureus ATCC 29213 stood at 128 µg/mL (≈ 233 µM); in the assay on S. aureus Newman it was 2 µg/mL (≈ 3.64 µM).
As for `O=c1[nH]n2c(NCCCNC3Cc4ccccc4C3)nc(C34CC5CC(CC(C5)C3)C4)nc2c1Cc1ccccc1` [Example 125, 2-(adamantan-1-yl)-8-benzyl-4-({3-[(2,3-dihydro-1H-inden-2-yl)amino]propyl}amino)-6H,7H-pyrazolo[1,5-a][1,3,5]triazin-7-one], the MIC was 2 µg/mL (≈ 3.64 µM) in the assay with S. aureus ATCC 29213 and 1 µg/mL (≈ 1.82 µM) in the assay on S. aureus Newman.
